These results are taken from patent US10174044B2, “Fused pyridines as kinase inhibitors” (BRISTOL-MYERS SQUIBB COMPANY, priority 2015, dated 2019).

Molecules are shown by their SMILES.

By IC50 is commonly meant the concentration needed to halve the response being measured.

GST-Xa-hAAK1, sequence (Q2M2I8 whole entry): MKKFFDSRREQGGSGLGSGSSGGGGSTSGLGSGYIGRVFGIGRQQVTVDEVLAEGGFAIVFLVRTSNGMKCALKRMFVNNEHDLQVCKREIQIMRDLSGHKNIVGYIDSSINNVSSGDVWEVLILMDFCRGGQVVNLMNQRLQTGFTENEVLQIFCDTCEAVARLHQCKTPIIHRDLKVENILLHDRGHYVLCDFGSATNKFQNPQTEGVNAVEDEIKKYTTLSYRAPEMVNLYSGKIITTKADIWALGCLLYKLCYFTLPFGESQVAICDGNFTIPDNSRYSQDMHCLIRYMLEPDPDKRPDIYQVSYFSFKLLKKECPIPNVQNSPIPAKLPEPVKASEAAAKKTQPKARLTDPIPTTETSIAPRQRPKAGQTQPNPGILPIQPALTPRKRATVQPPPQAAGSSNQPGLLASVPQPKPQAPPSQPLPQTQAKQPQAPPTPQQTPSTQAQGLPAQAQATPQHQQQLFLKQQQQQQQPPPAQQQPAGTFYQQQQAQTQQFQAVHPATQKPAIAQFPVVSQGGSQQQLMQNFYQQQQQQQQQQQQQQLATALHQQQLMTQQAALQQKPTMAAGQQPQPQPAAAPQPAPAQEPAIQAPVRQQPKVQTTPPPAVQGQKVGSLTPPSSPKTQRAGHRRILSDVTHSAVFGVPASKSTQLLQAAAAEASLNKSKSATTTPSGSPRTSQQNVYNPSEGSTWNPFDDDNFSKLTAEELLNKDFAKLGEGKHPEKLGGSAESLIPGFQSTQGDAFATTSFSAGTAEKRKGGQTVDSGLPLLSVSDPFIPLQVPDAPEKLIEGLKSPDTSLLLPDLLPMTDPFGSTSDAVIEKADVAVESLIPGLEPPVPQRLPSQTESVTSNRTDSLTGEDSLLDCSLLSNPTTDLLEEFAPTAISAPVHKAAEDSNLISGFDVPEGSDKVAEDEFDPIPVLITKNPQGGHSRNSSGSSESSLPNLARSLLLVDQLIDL

This assay addresses GST-Xa-hAAK1 (Homo sapiens (Human), UniProt Q2M2I8). Nature of the assay: AAK1 Kinase Assay. The conditions noted are these: bacterially expressed GST-Xa-hAAK1 3.5 nM; ATP 22 μM; fluoresceinated peptide substrate 1.5 μM; 3 hours at room temperature. The format is biochemical. How it is done: The assays were performed in U-bottom 384-well plates. […] The reactions were initiated by the combination of bacterially expressed, GST-Xa-hAAK1 with substrates and test compounds. The reactions were incubated at room temperature for 3 hours and terminated by adding 60 μl of 35 mM EDTA buffer to each sample. The reactions were analyzed on the Caliper LabChip 3000 (Caliper, Hopkinton, Mass.) by electrophoretic separation of the fluorescent substrate and phosphorylated product. […] Compounds were dissolved at 10 mM in dimethylsulfoxide (DMSO) and evaluated at eleven concentrations. IC50 values were derived by non-linear regression analysis.
Take `CC(C)C[C@](C)(N)COc1ccc2c(c1)COc1cnc(C(F)F)cc1-2` [Example 48, (S)-1-((2-(difluoromethyl)-6H-isochromeno[3,4-c]pyridin-8-yl)oxy)-2,4-dimethylpentan-2-amine]: the IC50 turned out to be 13 nM. Under `Cc1cc2c3ccc(OC[C@@](C)(N)CC(C)C)c(Cl)c3c(=O)n(C)c2cn1` [Example 18, (S)-8-((2-amino-2,4-dimethylpentyl)oxy)-7-chloro-2,5-dimethylbenzo[c][1,7]naphthyridin-6(5H)-one] stands 3 nM; under `CCOC(=O)Nc1cc2c(cn1)OCc1cc(OC[C@](C)(N)CC(C)C)ccc1-2` [Example 40, (R)-ethyl (8-((2-amino-2,4-dimethylpentyl)oxy)-6H-isochromeno[3,4-c]pyridin-2-yl)carbamate], 1.3 nM.

In the case of `CC(C)C[C@](C)(N)COc1ccc2c(c1)COc1cnc(NS(=O)(=O)C3CC3)cc1-2` [Example 56, (S)—N-(8-((2-amino-2,4-dimethylpentyl)oxy)-6H-isochromeno[3,4-c]pyridin-2-yl)cyclopropanesulfonamide], the IC50 was 37 nM. Under `COC(=O)Nc1cc2c(cn1)OCc1cc(OCC(C)(N)CC(C)C)ccc1-2` (stereo not shown) [Example 39, methyl (8-((2-amino-2,4-dimethylpentyl)oxy)-6H-isochromeno[3,4-c]pyridin-2-yl)carbamate] stands 8.1 nM; under `Cc1nccc2c3ccc(OC[C@@](C)(N)CC(C)C)c(Cl)c3c(=O)n(C)c12` [Example 15, (S)-8-((2-amino-2,4-dimethylpentyl)oxy)-7-chloro-4,5-dimethylbenzo[c][1,7]naphthyridin-6(5H)-one], 59 nM; under `CC(=O)Nc1cc2c(cn1)OCc1cc(OC[C@@H](N)CC(C)C)ccc1-2` [Example 33, (S)—N-(8-((2-amino-4-methylpentyl)oxy)-6H-isochromeno[3,4-c]pyridin-2-yl)acetamide], 2.1 nM. Under `Cc1cc2c(cc1OC[C@@H](N)CC(C)C)c(=O)n(C)c1cnccc21` [Example 3, (S)-8-((2-amino-4-methylpentyl)oxy)-5,9-dimethylbenzo[c][1,7]naphthyridin-6(5H)-one] stands 3.2 nM; under `[2H]C([2H])(Oc1ccc2c(c1)c(=O)n(C)c1c(C)nccc21)C(C)(N)CC(C)C` (stereo not shown) [Example 13, 8-((2-amino-1,1-dideutero-2,4-dimethylpentyl)oxy)-4,5-dimethylbenzo[c][1,7]naphthyridin-6(5H)-one], 117 nM. `CC(C)C[C@](C)(N)COc1ccc2c(c1)COc1cnc(N)cc1-2` [Example 53, (S)-8-((2-amino-2,4-dimethylpentyl)oxy)-6H-isochromeno[3,4-c]pyridin-2-amine]: the IC50 turned out to be 4.4 nM. Under `CC(C)C[C@H](N)COc1ccc2c(c1)c(=O)n(C)c1cnccc21` [Example 2, (S)-8-((2-amino-4-methylpentyl)oxy)-5-methylbenzo[c][1,7]naphthyridin-6(5H)-one] stands 37 nM; under `COC(=O)Nc1ncc2c(c1Cl)-c1cc(F)c(OC[C@@](C)(N)CC(C)C)cc1CO2` [Example 58, (S)-methyl (8-((2-amino-2,4-dimethylpentyl)oxy)-1-chloro-9-fluoro-6H-isochromeno[3,4-c]pyridin-2-yl)carbamate], 18 nM.

As to `CC(C)C[C@H](N)COc1ccc2c(c1)COc1cnc(N)cc1-2` [Example 35, (S)-8-((2-amino-4-methylpentyl)oxy)-6H-isochromeno[3,4-c]pyridin-2-amine], the half-maximal inhibitory concentration (IC50) stood at 11 nM. In the case of `CC(C)C[C@](C)(N)COc1ccc2c(c1)COc1cnc(NCC(F)(F)F)cc1-2` [Example 43, (S)-8-((2-amino-2,4-dimethylpentyl)oxy)-N-(2,2,2-trifluoroethyl)-6H-isochromeno[3,4-c]pyridin-2-amine], the IC50 was 56 nM. Turning to `CC(C)CC(C)(N)COc1ccc2c(c1)c(=O)n(C)c1cnccc21` (stereo not shown) [Example 7, 8-((2-amino-2,4-dimethylpentyl)oxy)-5-methylbenzo[c][1,7]naphthyridin-6(5H)-one], the IC50 was determined as 31 nM. Under `Cc1nccc2c3ccc(OC[C@](C)(N)CC(C)C)cc3c(=O)n(C)c12` [Example 11, (R)-8-((2-amino-2,4-dimethylpentyl)oxy)-4,5-dimethylbenzo[c][1,7]naphthyridin-6(5H)-one] stands 92 nM; under `[2H]C([2H])(Oc1cc2c(=O)n(CC)c3c(C)nccc3c2cc1Cl)C(C)(N)CC(C)C` (stereo not shown) [Example 12, 8-((2-amino-1,1-dideutero-2,4-dimethylpentyl)oxy)-9-chloro-5-ethyl-4-methylbenzo[c][1,7]naphthyridin-6(5H)-one], 30 nM; under `CC(=O)Nc1cc2c(cn1)OCc1cc(OC[C@](C)(N)CC(C)C)ccc1-2` [Example 38, (R)—N-(8-((2-amino-2,4-dimethylpentyl)oxy)-6H-isochromeno[3,4-c]pyridin-2-yl)acetamide], 7.7 nM. Under `CC(C)C[C@](C)(N)COc1ccc2c(c1)COc1cnc(S(C)(=O)=O)cc1-2` [Example 59, (S)-2,4-dimethyl-1-((2-(methylsulfonyl)-6H-isochromeno[3,4-c]pyridin-8-yl)oxy)pentan-2-amine] stands 184 nM. For `Cc1nccc2c1[nH]c(=O)c1cc(OC[C@@](C)(N)CC(C)C)c(Cl)cc12` [Example 28, (S)-8-((2-amino-2,4-dimethylpentyl)oxy)-9-chloro-4-methylbenzo[c][1,7]naphthyridin-6(5H)-one], the IC50 amounted to 611 nM. Under `[2H]C([2H])([2H])n1c(=O)c2cc(OC[C@@](C)(N)CC(C)C)ccc2c2ccnc(C)c21` [Example 23, (S)-8-((2-amino-2,4-dimethylpentyl)oxy)-4-methyl-5-(trideuteromethyl)benzo[c][1,7]naphthyridin-6(5H)-one] stands 46 nM; under `COC(=O)Nc1cc2c(cn1)OCc1cc(OC[C@@H](N)CC(C)C)ccc1-2` [Example 34, (S)-methyl (8-((2-amino-4-methylpentyl)oxy)-6H-isochromeno[3,4-c]pyridin-2-yl)carbamate], 3.8 nM.
